# Test results from US4026888A, “Certain derivatives of particular 3-thiolated cephalosporins” (priority 1976, dated 1977).
# Read-outs that look alike come from different tables or passages of the source.
# Tests used:
# [1] = Mouse blood levels after intramuscular administration; assay type: in vivo; settings: mouse, blood, im, 10 mg/kg, Example 2, IM 10 mg./kg., 0.01% phosphate buffer, 16 or 32 mice, read-out: Blood Levels
# Procedure: Mouse Blood Levels After Intramuscular Administration
# of 10 mg./kg. Body Weight
# The compounds were dissolved in 0.01% phosphate buffer.
# Mouse Blood Levels After IM
# Administration of 10 mg./kg. Body Weight
# The compounds were prepared in 0.01% phosphate
# (§1) The compounds were prepared in 0.01% phosphate buffer.
# [2] = 0.2 and 1.0 mg./ml. in water
# Procedure: Paper strip bioautographs were run in the following manner. Samples were dissolved at a concentration of 500 γ/ml. in 0.1M pH 7 phosphate buffer and pH 7 pooled human serum at 500 γ/ml. A 10 μl sample of BL-S640 and the above product were spotted on a 1/2 inch strip of What. No. 1 paper and developed at 27° for 16 hours in a butyl acetate 80, n-butanol 15, acetic acid 40, and water 24 system. The strips were air-dried, and placed on an agar plate seeded with B. subtilis A.T.C.C.
# Samples were chromatographed on a μ Bondapak C18 (Waters Associates) column using a 0.01M sodium acetate pH 4/-methanol 8/2 mobile phase at a flow rate of 0.52 ml./min. Detection was by UV at 354 μm. Samples were dissolved at a concentration of 1 mg./ml. in the mobile phase, 2 μ were injected and BL-S640 was eluted at 18 min. and the aldehyde at 6 min. The quantitation of BL-S640 and 5-formylfuransulfonic acid were made using p-toluene-sulfonic acid as an internal standard.
# P. mirabilis A9900 [3] = assay: IM PD50 in mice; assay type: in vivo; settings: Proteus mirabilis
# Text: Comparative IM PD50 Values of
# BL-S640 Derivatives in Mice
# [4] = Paper chromatography of rat urine for antibiotically active metabolites; assay type: in vivo; settings: IM; rat urine 0-2 and 2-4 hours
# Procedure: Paper chromatograms were run on rat urine collected between 0 and 2 and between 2 and 4 hours following IM administration of BL-S1055 and 640, for the detection of antibiotically active metabolites using descending chromatography with system No. 9 (butyl acetate:n-butanol:glacial acetic acid:H2 O= 80:15:40:24).
# P. mirabilis A9900 [5] = assay: Oral PD50 in mice; assay type: in vivo; settings: mice treated at 1 and 3.5 hours post-challenge
# Str. pyogenes A9604 = assay: Antibiotic activity in nutrient broth (MIC); assay type: cell-based; settings: Streptococcus pyogenes, A9604, inoculum 10^-3; 45% AAB + 5% serum + 50% broth; derivatives adjusted for BL-S640 content; read-out: MIC
# Text: (§2) Antibiotic Activity In Nutrient Broth
# (§3) * 45% AAB+ 5% serum+ 50% broth listed above.
# (§4) ** Dilution of overnight broth culture.
# (§5) Antibiotic Spectrum Nutrient Broth
# (§6) * 45% AAB + 5% serum + 50% broth
# (§7) Antibiotic Spectrum in Nutrient Broth
# (§8) *45% AAB + 5% serum + 50% broth listed above.
# Str. pneumoniae A9585 = assay: Antibiotic activity in nutrient broth (MIC); assay type: cell-based; settings: Streptococcus pneumoniae, A9585, inoculum 10^-3 dilution of overnight broth culture; 45% AAB + 5% serum + 50% broth; derivatives adjusted for BL-S640 content
# Text: as §2, §3, §4, §5, §6, §7, §8
# [6] = Mouse blood levels after oral administration; assay type: in vivo; settings: mouse, blood, po, 100 mg/kg, Example 2, PO 100 mg./kg., Tween-CMC, 16 or 32 mice, read-out: Blood Levels
# Procedure: Mouse Blood Levels After Oral
# Administration Of 100 mg./kg. Body Weight
# The compounds were prepared in
# Tween - carboxymethylcellulose
# and 8 mice were used for each
# Mouse Blood Levels After PO
# Administration of 100 mg./kg. Body Weight
# The compounds were prepared in Tween-CMC. BL-S640
# The compounds were prepared in Tween-CMC. Values are the average of two
# [7] = Urinary recovery after IM administration to rats; assay type: in vivo; settings: rat, urine, read-out: Urinary Recovery, Percentage of Administered Dose Recovered; for dose excreted at 6 h: 0-6 hr
# Procedure: Urinary Recovery After IM
# Administration of 50 and 10 mg./kg. to Rats
# The compounds were prepared in 0.01% phosphate buffer. BL-S640 was used as
# Urinary Recovery after IM
# Administration of 50 mg./kg. to Rats
# as §1
# Sal. enteritidis A9531 = assay: Antibiotic activity in nutrient broth (MIC); assay type: cell-based; settings: Salmonella enterica, ENTERITIDIS, inoculum 10^-4; derivatives adjusted for BL-S640 content; read-out: MIC
# Text: as §2, §4, §5, §7
# K. pneumoniae A9977 = assay: Antibiotic activity in nutrient broth (MIC); assay type: cell-based; settings: Klebsiella pneumoniae, inoculum 10^-4, derivatives adjusted for BL-S640 content, read-out: MIC
# Text: as §2, §4, §5, §7
# Ent. cloacae A9656 = assay: Antibiotic activity in nutrient broth (MIC); assay type: cell-based; settings: Enterobacter cloacae, A9656, inoculum 10^-4; derivatives adjusted for BL-S640 content
# Text: as §2, §4, §5, §7
# Ent. cloacae A9657 = assay: Antibiotic activity in nutrient broth (MIC); assay type: cell-based; settings: Enterobacter cloacae, A9657, inoculum 10^-4; derivatives adjusted for BL-S640 content; read-out: MIC
# Text: as §2, §4, §5, §7
# K. pneumoniae A15130 = assay: Antibiotic activity in nutrient broth (MIC); assay type: cell-based; settings: Klebsiella pneumoniae, A15130, inoculum 10^-4; derivatives adjusted for BL-S640 content; read-out: MIC
# Text: as §2, §4, §5, §7
# Ent. cloacae A9659 = assay: Antibiotic activity in nutrient broth (MIC); assay type: cell-based; settings: Enterobacter cloacae, A9659, inoculum 10^-4; derivatives adjusted for BL-S640 content; read-out: MIC
# Text: as §2, §4, §5, §7
# Ser. marcescens A20019 = assay: Antibiotic activity in nutrient broth (MIC); assay type: cell-based; settings: Serratia marcescens, A20019, inoculum 10^-4; derivatives adjusted for BL-S640 content
# Text: as §2, §4, §5, §7
# [8] = system: S. aureus Meth-Res A15097; assay: Antibiotic activity in nutrient broth (MIC); assay type: cell-based; settings: Staphylococcus aureus, inoculum 10^-3; Meth-Res; derivatives adjusted for BL-S640 content; read-out: MIC
# Text: as §2, §4, §5, §7
# S. aureus BX1633 A9606 = assay: Antibiotic activity in nutrient broth (MIC); assay type: cell-based; settings: Staphylococcus aureus, derivatives adjusted for BL-S640 content, read-out: MIC
# Text: as §2, §4, §5, §7
# Ps. aeruginosa A9843A = assay: Antibiotic activity in nutrient broth (MIC); assay type: cell-based; settings: Pseudomonas aeruginosa
# Text: as §2, §4, §5, §7
# Pr. morganii A15153 = assay: Antibiotic activity in nutrient broth (MIC); assay type: cell-based; settings: Morganella morganii, A15153, inoculum 10^-4; derivatives adjusted for BL-S640 content; read-out: MIC
# Text: as §2, §4, §5, §7
# E. coli Juhl A15119 = assay: Antibiotic activity in nutrient broth (MIC); assay type: cell-based; settings: Escherichia coli, JUHLA15119, inoculum 10^-4; derivatives adjusted for BL-S640 content; read-out: MIC
# Text: as §2, §4, §5, §7
# Pr. mirabilis A9900 = assay: Antibiotic activity in nutrient broth (MIC); assay type: cell-based; settings: Proteus mirabilis, inoculum 10^-4, derivatives adjusted for BL-S640 content
# Text: as §2, §4, §5, §7
compound,measurement,setting,value
O=C(O)COc1ccccc1C1N[C@H](c2ccc(O)cc2)C(=O)N1[C@@H]1C(=O)N2C(C(=O)O)=C(CSc3cnn[nH]3)CS[C@H]12 (some centres unmarked) [BL-S1048],concentration at 0.25 h,[1]; 0.25 hr,14800 ng/mL
same,concentration at 0.5 h,[1]; 0.5 hr,14100 ng/mL
same,concentration at 1 h,[1]; 1 hr,10300 ng/mL
same,concentration at 1.5 h,[1]; 1.5 hr,7000 ng/mL
same,Form in solution by paper strip and liquid chromatography,[2],BL-S640 completely free of the aldehyde
same,ED50,P. mirabilis A9900 [3],1.6 mg/kg
same,Hydrolysis to the parent compound (BL-S640),[4],complete hydrolysis
same,ED50,"P. mirabilis A9900 [5]; Proteus mirabilis, A9900, po, 3.5 h, read-out: PD50, oral",4.7 mg/kg
same,PD50,P. mirabilis A9900 [5]; oral,3.6 mg./kg./treatment
same,MIC,Str. pyogenes A9604,0.03 µg/mL
same,MIC,Str. pneumoniae A9585,0.06 µg/mL
same,concentration at 0.5 h,[6]; 0.5 hr,46500 ng/mL
same,concentration at 1 h,[6]; 1 hr,44600 ng/mL
same,concentration at 2 h,[6]; 2 hr,28100 ng/mL
same,concentration at 3.5 h,[6]; 3.5 hr,12800 ng/mL
same,dose excreted at 6 h,"[7]; 10 mg/kg, IM 10 mg./kg.",21.7%
same,dose excreted at 24 h,"[7]; 10 mg/kg, IM 10 mg./kg., 0-24 hr",23.7%
same,dose excreted at 24 h,"[7]; 10 mg/kg, IM 10 mg./kg., 6-24 hr",2%
same,dose excreted at 6 h,"[7]; 50 mg/kg, IM 50 mg./kg.",32.3%
same,dose excreted at 24 h,"[7]; 50 mg/kg, IM 50 mg./kg., 0-24 hr",34.7%
same,dose excreted at 24 h,"[7]; 50 mg/kg, IM 50 mg./kg., 6-24 hr",2.4%
same,MIC,Sal. enteritidis A9531,0.13 µg/mL
same,MIC,K. pneumoniae A9977,0.5 µg/mL
same,MIC,Ent. cloacae A9656,> 125 µg/mL
same,MIC,Ent. cloacae A9657,0.5 µg/mL
same,MIC,K. pneumoniae A15130,1 µg/mL
same,MIC,Ent. cloacae A9659,32 µg/mL
same,MIC,Ser. marcescens A20019,> 125 µg/mL
same,MIC,[8],4 µg/mL
same,MIC,"S. aureus BX1633 A9606; BX1633A9606, inoculum 10^-2",2 µg/mL
same,MIC,"S. aureus BX1633 A9606; BX1633A9606, inoculum 10^-3",0.25 µg/mL
same,MIC,Ps. aeruginosa A9843A,> 125 µg/mL
same,MIC,Pr. morganii A15153,32 µg/mL
same,MIC,E. coli Juhl A15119,0.5 µg/mL
same,MIC,Pr. mirabilis A9900,0.5 µg/mL
